Source: publication PMC5218480 (PLoS ONE, 2017)

Tested on: MV-4-11 cells
Test: Gene expression microarray analysis (Affymetrix PrimeView) and GSEA
Assay type: cell-based, human
Set-up: RFU PODN (11730768_x_at) / Fold change /veh PODN (11730768_x_at) / RFU LINC00158 (11744669_a_at) / Fold change /veh LINC00158 (11744669_a_at) / RFU DUSP10 (11751237_a_at) / Fold change /veh DUSP10 (11751237_a_at) / RFU ID3 (11757404_x_at) / Fold change /veh ID3 (11757404_x_at) / RFU PLEKHG5 (11737974_s_at) / Fold change /veh PLEKHG5 (11737974_s_at) / RFU LRRC4B (11730491_at) / Fold change /veh LRRC4B (11730491_at) / RFU GIMAP4 (11747438_a_at) / Fold change /veh GIMAP4 (11747438_a_at) / RFU KRT8 (11758183_x_at) / Fold change /veh KRT8 (11758183_x_at) / RFU CNN1 (11734310_a_at) / Fold change /veh CNN1 (11734310_a_at) / RFU VPS37D (11726825_at) / Fold change /veh VPS37D (11726825_at) / RFU C10orf10 (11716522_x_at) / Fold change /veh C10orf10 (11716522_x_at) / RFU KIR2DL2 /// KIR2DL4 /// KIR2DL5A /// KIR2DL5B /// KIR2DS1 /// KIR2DS2 /// KIR2DS3 /// KIR2DS4 /// KIR3DL3 /// KIR3DL3 /// KIR3DS1 (11738374_at) / Fold change /veh KIR2DL2 /// KIR2DL4 /// KIR2DL5A /// KIR2DL5B /// KIR2DS1 /// KIR2DS2 /// KIR2DS3 /// KIR2DS4 /// KIR3DL3 /// KIR3DL3 /// KIR3DS1 (11738374_at) / RFU C1QL1 (11718748_at) / Fold change /veh C1QL1 (11718748_at) / RFU TMPRSS4 (11747572_a_at) / Fold change /veh TMPRSS4 (11747572_a_at) / RFU HAMP (11756126_x_at) / Fold change /veh HAMP (11756126_x_at) / RFU RNFT2 (11725882_a_at) / Fold change /veh RNFT2 (11725882_a_at) / RFU NR4A2 (11747474_a_at) / Fold change /veh NR4A2 (11747474_a_at) / RFU ABCC12 (11746883_a_at) / Fold change /veh ABCC12 (11746883_a_at) / RFU TMEM136 (11760407_x_at) / Fold change /veh TMEM136 (11760407_x_at) / RFU CLDN22 /// WWC2 (11732394_at) / Fold change /veh CLDN22 /// WWC2 (11732394_at) / RFU HLA-DPB1 (11760878_x_at) / Fold change /veh HLA-DPB1 (11760878_x_at) / RFU SPINT1 (11716480_a_at) / Fold change /veh SPINT1 (11716480_a_at) / RFU GAP43 (11754022_s_at) / Fold change /veh GAP43 (11754022_s_at) / RFU A4GNT (11735810_at) / Fold change /veh A4GNT (11735810_at) / RFU PRB3 (11715151_x_at) / Fold change /veh PRB3 (11715151_x_at) / RFU TUBB4B (11761932_at) / Fold change /veh TUBB4B (11761932_at) / RFU CAPN14 (11732068_a_at) / Fold change /veh CAPN14 (11732068_a_at) / RFU TMCC2 (11721928_a_at) / Fold change /veh TMCC2 (11721928_a_at) / RFU IRGQ (11745062_a_at) / Fold change /veh IRGQ (11745062_a_at) / RFU FAM174B (11720279_a_at) / Fold change /veh FAM174B (11720279_a_at) / RFU TMPRSS4 (11748680_a_at) / Fold change /veh TMPRSS4 (11748680_a_at) / RFU FAM212B (11763350_a_at) / Fold change /veh FAM212B (11763350_a_at) / RFU PLEKHG5 (11743358_a_at) / Fold change /veh PLEKHG5 (11743358_a_at) / RFU ZSCAN30 (11745921_a_at) / Fold change /veh ZSCAN30 (11745921_a_at) / RFU CMKLR1 (11741424_a_at) / Fold change /veh CMKLR1 (11741424_a_at) / RFU LOC101060620 /// MAPK8IP1 (11723275_at) / Fold change /veh LOC101060620 /// MAPK8IP1 (11723275_at) / RFU SPTSSB (11747773_x_at) / Fold change /veh SPTSSB (11747773_x_at) / RFU PRSS12 (11739890_at) / Fold change /veh PRSS12 (11739890_at) / RFU BIN1 (11741810_x_at) / Fold change /veh BIN1 (11741810_x_at) / RFU WNT11 (11732464_a_at) / Fold change /veh WNT11 (11732464_a_at) / RFU C10orf10 (11716521_a_at) / Fold change /veh C10orf10 (11716521_a_at) / RFU C5orf56 (11738089_at) / Fold change /veh C5orf56 (11738089_at) / RFU CYB561 (11721691_x_at) / Fold change /veh CYB561 (11721691_x_at) / RFU ANKRD19P (11752326_a_at) / Fold change /veh ANKRD19P (11752326_a_at) / RFU OR2T12 /// OR2T33 /// OR2T8 (11738714_s_at) / Fold change /veh OR2T12 /// OR2T33 /// OR2T8 (11738714_s_at) / RFU VCAN (11748164_a_at) / Fold change /veh VCAN (11748164_a_at) / RFU JSRP1 (11732532_at) / Fold change /veh JSRP1 (11732532_at) / RFU KRTAP10-11 (11738290_x_at) / Fold change /veh KRTAP10-11 (11738290_x_at) / RFU MYO3A (11730013_a_at) / Fold change /veh MYO3A (11730013_a_at) / RFU EBF3 (11725865_a_at) / Fold change /veh EBF3 (11725865_a_at) / RFU CAMK2N1 (11719241_x_at) / Fold change /veh CAMK2N1 (11719241_x_at) / RFU C5orf56 (11738088_a_at) / Fold change /veh C5orf56 (11738088_a_at) / RFU OLFML3 (11715873_a_at) / Fold change /veh OLFML3 (11715873_a_at) / RFU LOC100653217 /// NTM (11731650_a_at) / Fold change /veh LOC100653217 /// NTM (11731650_a_at) / RFU MAPK11 (11762145_a_at) / Fold change /veh MAPK11 (11762145_a_at) / RFU FIZ1 (11724087_x_at) / Fold change /veh FIZ1 (11724087_x_at) / RFU OASL (11726364_x_at) / Fold change /veh OASL (11726364_x_at) / RFU SOX15 (11748057_x_at) / Fold change /veh SOX15 (11748057_x_at) / RFU CD79A (11719716_a_at) / Fold change /veh CD79A (11719716_a_at) / RFU HIST1H1D (11736915_at) / Fold change /veh HIST1H1D (11736915_at) / RFU CASKIN2 (11723855_a_at) / Fold change /veh CASKIN2 (11723855_a_at) / RFU LOC730098 (11760151_x_at) / Fold change /veh LOC730098 (11760151_x_at) / RFU OR4N2 (11742367_at) / Fold change /veh OR4N2 (11742367_at) / RFU PRRT2 (11749266_a_at) / Fold change /veh PRRT2 (11749266_a_at) / RFU SNX32 (11753110_a_at) / Fold change /veh SNX32 (11753110_a_at) / RFU CDHR5 (11726645_a_at) / Fold change /veh CDHR5 (11726645_a_at) / RFU RCAN1 (11760418_a_at) / Fold change /veh RCAN1 (11760418_a_at) / RFU FAM167A (11723789_a_at) / Fold change /veh FAM167A (11723789_a_at) / RFU FAM26E (11764081_at) / Fold change /veh FAM26E (11764081_at) / RFU ISYNA1 (11749810_s_at) / Fold change /veh ISYNA1 (11749810_s_at) / RFU ACY1 (11761880_at) / Fold change /veh ACY1 (11761880_at) / RFU 11764098_at / Fold change /veh 11764098_at / RFU SAMD14 (11745864_x_at) / Fold change /veh SAMD14 (11745864_x_at) / RFU NPB (11741838_a_at) / Fold change /veh NPB (11741838_a_at) / RFU TMPRSS6 (11731388_a_at) / Fold change /veh TMPRSS6 (11731388_a_at) / RFU KRTAP10-2 (11738614_at) / Fold change /veh KRTAP10-2 (11738614_at) / RFU ARHGAP8 /// PRR5-ARHGAP8 (11727945_x_at) / Fold change /veh ARHGAP8 /// PRR5-ARHGAP8 (11727945_x_at) / RFU KRTAP5-7 /// NADSYN1 (11734609_at) / Fold change /veh KRTAP5-7 /// NADSYN1 (11734609_at) / RFU RASL12 (11751679_a_at) / Fold change /veh RASL12 (11751679_a_at) / RFU CDKN2B (11736163_a_at) / Fold change /veh CDKN2B (11736163_a_at) / RFU PRF1 (11729649_at) / Fold change /veh PRF1 (11729649_at) / RFU, ZNF638 /// ZNF638-IT1 / Fold change vs veh, ZNF638 /// ZNF638-IT1 / RFU, PANK3 / Fold change vs veh, PANK3 / RFU, SH3YL1 / Fold change vs veh, SH3YL1 / RFU, ZEB2 / Fold change vs veh, ZEB2 / RFU, NRIP1 / Fold change vs veh, NRIP1 / RFU, PTTG1IP / Fold change vs veh, PTTG1IP / RFU, CAPN2 / Fold change vs veh, CAPN2 / RFU, MED14 / Fold change vs veh, MED14 / RFU, SNORA58 / Fold change vs veh, SNORA58 / RFU, C1orf63 / Fold change vs veh, C1orf63 / RFU, LRRFIP1 / Fold change vs veh, LRRFIP1 / RFU, NDUFAF7 / Fold change vs veh, NDUFAF7 / RFU, SLC12A2 / Fold change vs veh, SLC12A2 / RFU, IBTK / Fold change vs veh, IBTK / RFU, ESF1 / Fold change vs veh, ESF1 / Fold change vs veh, TMEM50B / RFU, TAOK1 / Fold change vs veh, TAOK1 / RFU, ACBD3 / Fold change vs veh, ACBD3 / RFU, TMA16 / Fold change vs veh, TMA16 / RFU, RWDD3 / Fold change vs veh, RWDD3 / RFU, BCAT1 / Fold change vs veh, BCAT1 / RFU, EDEM3 / Fold change vs veh, EDEM3 / RFU, TMEM33 / Fold change vs veh, TMEM33 / RFU, WDR75 / Fold change vs veh, WDR75 / RFU, AHCTF1 / Fold change vs veh, AHCTF1 / RFU, TFRC / Fold change vs veh, TFRC / RFU, ZDHHC17 / Fold change vs veh, ZDHHC17 / RFU, NOM1 / Fold change vs veh, NOM1 / RFU, ARL8B / Fold change vs veh, ARL8B / RFU, ZBTB11 / Fold change vs veh, ZBTB11 / RFU, TAMM41 / Fold change vs veh, TAMM41 / RFU, KIAA1704 /// LOC100996395 / Fold change vs veh, KIAA1704 /// LOC100996395 / RFU, ING1 / Fold change vs veh, ING1 / RFU, TRMT61B / Fold change vs veh, TRMT61B / RFU, FUBP3 / Fold change vs veh, FUBP3 / RFU, TP53 / Fold change vs veh, TP53 / RFU, TNKS2 / Fold change vs veh, TNKS2 / RFU, ZFP14 / Fold change vs veh, ZFP14 / RFU, ACTR2 / Fold change vs veh, ACTR2 / RFU, PPP3R1 / Fold change vs veh, PPP3R1 / RFU, PIK3R1 / Fold change vs veh, PIK3R1 / RFU, HNRNPA1 / Fold change vs veh, HNRNPA1 / RFU, RNF170 / Fold change vs veh, RNF170 / RFU, ZNF28 / Fold change vs veh, ZNF28 / RFU, RNGTT / Fold change vs veh, RNGTT / RFU, OGT / Fold change vs veh, OGT / RFU, BRD1 / Fold change vs veh, BRD1 / RFU, MARS / Fold change vs veh, MARS / RFU, ZNF655 / Fold change vs veh, ZNF655 / RFU, FAHD1 / Fold change vs veh, FAHD1 / RFU, BDP1 / Fold change vs veh, BDP1 / RFU, LRRCC1 / Fold change vs veh, LRRCC1 / RFU, ARID1A / Fold change vs veh, ARID1A / RFU, ZNF146 / Fold change vs veh, ZNF146 / RFU, ZNF330 / Fold change vs veh, ZNF330 / RFU, GPN3 / Fold change vs veh, GPN3 / RFU, C9orf123 / Fold change vs veh, C9orf123 / RFU, N4BP2L2 / Fold change vs veh, N4BP2L2 / RFU, ARFIP1 / Fold change vs veh, ARFIP1 / RFU, FAM179B / Fold change vs veh, FAM179B / RFU, BCL10 / Fold change vs veh, BCL10 / RFU, UHRF1BP1L / Fold change vs veh, UHRF1BP1L / RFU, BET1 / Fold change vs veh, BET1 / RFU, CNOT2 / Fold change vs veh, CNOT2 / RFU, ZNF268 / Fold change vs veh, ZNF268 / Fold change vs veh, ZNF507 / RFU, DGCR2 / Fold change vs veh, DGCR2 / RFU, WDSUB1 / Fold change vs veh, WDSUB1 / Fold change vs veh, HSP90B1 /// MIR3652 / RFU, ADSS / Fold change vs veh, ADSS / RFU, GK / Fold change vs veh, GK / RFU, ZNF148 / Fold change vs veh, ZNF148 / RFU, TAF9 / Fold change vs veh, TAF9 / RFU, SLC1A5 / Fold change vs veh, SLC1A5 / RFU, SLMO2 / Fold change vs veh, SLMO2 / RFU, ABCC4 / Fold change vs veh, ABCC4 / RFU, LOC101060439 /// RAP1B / Fold change vs veh, LOC101060439 /// RAP1B / RFU, RFX7 / Fold change vs veh, RFX7 / RFU, GTPBP10 / Fold change vs veh, GTPBP10 / RFU, CNEP1R1 / Fold change vs veh, CNEP1R1 / RFU, BIVM-ERCC5 /// ERCC5 / Fold change vs veh, BIVM-ERCC5 /// ERCC5 / RFU, ILF3 / Fold change vs veh, ILF3 / RFU 11762660_at / Fold change /veh 11762660_at / RFU VCAN (11757783_s_at) / Fold change /veh VCAN (11757783_s_at) / RFU DDX43 (11728927_at) / Fold change /veh DDX43 (11728927_at) / RFU KRT8 (11758188_x_at) / Fold change /veh KRT8 (11758188_x_at) / RFU NKD1 (11759106_at) / Fold change /veh NKD1 (11759106_at) / RFU SRD5A1 (11742802_a_at) / Fold change /veh SRD5A1 (11742802_a_at) / RFU TPSAB1 /// TPSB2 (11721975_s_at) / Fold change /veh TPSAB1 /// TPSB2 (11721975_s_at) / RFU GSTM3 (11746129_a_at) / Fold change /veh GSTM3 (11746129_a_at) / RFU IL23R (11737362_x_at) / Fold change /veh IL23R (11737362_x_at) / RFU TMEM51 (11727254_a_at) / Fold change /veh TMEM51 (11727254_a_at) / RFU PIWIL2 (11732686_x_at) / Fold change /veh PIWIL2 (11732686_x_at) / RFU ORM1 (11744905_x_at) / Fold change /veh ORM1 (11744905_x_at) / RFU CCDC152 (11743942_at) / Fold change /veh CCDC152 (11743942_at) / RFU ECM1 (11717891_a_at) / Fold change /veh ECM1 (11717891_a_at) / RFU IL23R (11748794_a_at) / Fold change /veh IL23R (11748794_a_at) / RFU TNFAIP8L3 (11732012_x_at) / Fold change /veh TNFAIP8L3 (11732012_x_at) / RFU MBOAT4 (11741988_at) / Fold change /veh MBOAT4 (11741988_at) / RFU 11764193_at / Fold change /veh 11764193_at / RFU TMEM53 (11763286_at) / Fold change /veh TMEM53 (11763286_at) / RFU MAGEB2 (11727129_at) / Fold change /veh MAGEB2 (11727129_at) / RFU TMEM200A (11744735_a_at) / Fold change /veh TMEM200A (11744735_a_at) / RFU CCDC152 (11751479_a_at) / Fold change /veh CCDC152 (11751479_a_at) / RFU FAM211A (11726209_a_at) / Fold change /veh FAM211A (11726209_a_at) / RFU RGS16 (11746705_a_at) / Fold change /veh RGS16 (11746705_a_at) / RFU VCAN (11755009_s_at) / Fold change /veh VCAN (11755009_s_at) / RFU RHOB (11743442_s_at) / Fold change /veh RHOB (11743442_s_at) / RFU RGS16 (11720943_a_at) / Fold change /veh RGS16 (11720943_a_at) / RFU RGS16 (11720944_at) / Fold change /veh RGS16 (11720944_at) / RFU, VPS4B / Fold change vs veh, VPS4B / RFU, CREB1 / Fold change vs veh, CREB1 / RFU, DNAJC13 / Fold change vs veh, DNAJC13 / RFU, GNAQ / Fold change vs veh, GNAQ / RFU, CDK5R1 / Fold change vs veh, CDK5R1 / RFU, ZRANB3 / Fold change vs veh, ZRANB3 / RFU, CUL4A / Fold change vs veh, CUL4A / RFU, CCNY / Fold change vs veh, CCNY / RFU, UFL1 / Fold change vs veh, UFL1 / RFU, COG3 / Fold change vs veh, COG3 / RFU, DIAPH2 / Fold change vs veh, DIAPH2 / RFU, SKA2 / Fold change vs veh, SKA2 / RFU, AFF3 / Fold change vs veh, AFF3 / RFU, LMF1 / Fold change vs veh, LMF1 / RFU, IPO11 / Fold change vs veh, IPO11 / RFU, DFFB / Fold change vs veh, DFFB / RFU, FOXP1 / Fold change vs veh, FOXP1 / RFU, CARD8 / Fold change vs veh, CARD8 / RFU, STRN3 / Fold change vs veh, STRN3 / RFU, ADK / Fold change vs veh, ADK / RFU, RASSF2 / Fold change vs veh, RASSF2 / RFU, WIPF1 / Fold change vs veh, WIPF1 / RFU, LARP1B / Fold change vs veh, LARP1B / RFU, RASA1 / Fold change vs veh, RASA1 / RFU, RB1 / Fold change vs veh, RB1 / RFU, PPFIA1 / Fold change vs veh, PPFIA1 / RFU, MAT2A / Fold change vs veh, MAT2A / RFU, CCT5 / Fold change vs veh, CCT5 / RFU, WDR92 / Fold change vs veh, WDR92 / RFU, CUX1 / Fold change vs veh, CUX1 / RFU, TTC7A / Fold change vs veh, TTC7A / RFU, TMEM135 / Fold change vs veh, TMEM135 / RFU, DEPTOR / Fold change vs veh, DEPTOR / RFU, CPM / Fold change vs veh, CPM / RFU, DNAJB6 / Fold change vs veh, DNAJB6 / RFU, CACNA2D3 / Fold change vs veh, CACNA2D3 / RFU, DTX4 / Fold change vs veh, DTX4 / RFU, TFCP2 / Fold change vs veh, TFCP2 / RFU, GMCL1 /// GMCL1P1 / Fold change vs veh, GMCL1 /// GMCL1P1 / RFU, AEBP2 / Fold change vs veh, AEBP2 / RFU, SNHG1 /// SNORD22 /// SNORD25 /// SNORD26 /// SNORD27 /// SNORD28 /// SNORD29 /// SNORD31 / Fold change vs veh, SNHG1 /// SNORD22 /// SNORD25 /// SNORD26 /// SNORD27 /// SNORD28 /// SNORD29 /// SNORD31 / Fold change (Aza/veh), C12orf56 (ProbeSet 11735607_a_at) / Fold change (ACY-1035/veh), C12orf56 (ProbeSet 11735607_a_at) / Fold change (Aza/veh), FGFR1OP (ProbeSet 11751329_s_at) / Fold change (ACY-1035/veh), FGFR1OP (ProbeSet 11751329_s_at) / Fold change (Aza/veh), VPS36 (ProbeSet 11739960_a_at) / Fold change (ACY-1035/veh), VPS36 (ProbeSet 11739960_a_at) / RFU SYPL1 (11715823_x_at) / Fold change /veh SYPL1 (11715823_x_at) / RFU IGFBP7 (11715501_s_at) / Fold change /veh IGFBP7 (11715501_s_at) / RFU REEP3 (11722064_at) / Fold change /veh REEP3 (11722064_at) / RFU IGLL1 (11728026_x_at) / Fold change /veh IGLL1 (11728026_x_at): dose or concentration left out as unconfirmed
Settings: MV-4-11 cells, 48 hours

Nc1ccc(-c2cccs2)cc1NC(=O)c1ccc2c(c1)cc(C1CC1)n2CCN1CCOCC1 [ACY-1035]
Fold change /veh RGS16 (11720943_a_at): 0.99
